From ChEMBL document CHEMBL4480418, “Antibacterial activity of indolyl-quinolinium derivatives and study their mode of action” (Bioorg Med Chem, 2019)
Converted amounts (≈) assume the structure as drawn. The source made the active and inactive calls. The calls are words filed in the database; no cut-off is given here.

Tests used:
[1] = system: Enterococcus faecalis; assay: Antimicrobial activity against Enterococcus faecalis ATCC 29212 measured after 18 hrs by broth microdilution method; type: functional; details: ATCC 29212, 18 h
[2] = system: Enterococcus faecium; assay: Antimicrobial activity against vancomycin-resistant Enterococcus faecium ATCC 700221 measured after 18 hrs by broth microdilution method; type: functional; details: ATCC 700221, 18 h
[3] = system: Staphylococcus aureus; assay: Antimicrobial activity against methicillin-resistant Staphylococcus aureus ATCC 43300 measured after 18 hrs by broth microdilution method; type: functional; details: ATCC 43300, 18 h
[4] = system: Bacillus subtilis; assay: Antibacterial activity against Bacillus subtilis 168 measured after 18 hrs by broth microdilution method; type: functional; details: subsp. subtilis str. 168, 18 h
[5] = system: Escherichia coli; assay: Antimicrobial activity against NDM1 beta -lactamse expressing Escherichia coli ATCC BAA-2469 measured after 18 hrs by broth microdilution method; type: functional; details: ATCC BAA-2469, 18 h
[6] = system: Staphylococcus aureus; assay: Antimicrobial activity against penicillin-resistant Staphylococcus aureus ATCC 29213 measured after 18 hrs by broth microdilution method; type: functional; details: ATCC 29213, 18 h
[7] = system: Enterococcus faecium; assay: Antimicrobial activity against drug-susceptible Enterococcus faecium ATCC 49624 measured after 18 hrs by broth microdilution method; type: functional; details: ATCC 49624, 18 h
[8] = system: Escherichia coli; assay: Antimicrobial activity against Escherichia coli ATCC 25922 measured after 18 hrs by broth microdilution method; type: functional; details: ATCC 25922, 18 h
[9] = system: Staphylococcus aureus; assay: Antimicrobial activity against methicillin-resistant Staphylococcus aureus ATCC BAA-41 measured after 18 hrs by broth microdilution method; type: functional; details: ATCC BAA-41, 18 h
[10] = system: Enterobacter cloacae; assay: Antimicrobial activity against Ampc beta-lactamase expressing Enterobacter cloacae ATCC BAA-1143 measured after 18 hrs by broth microdilution method; type: functional; details: ATCC BAA-1143, 18 h
[11] = system: Acinetobacter baumannii; assay: Antimicrobial activity against multidrug-resistant Acinetobacter baumannii ATCC 19606 measured after 18 hrs by broth microdilution method; type: functional; details: ATCC 19606 = CIP 70.34 = JCM 6841, 18 h
[12] = system: Pseudomonas aeruginosa; assay: Antimicrobial activity against multidrug-resistant Pseudomonas aeruginosa ATCC BAA-2108 measured after 18 hrs by broth microdilution method; type: functional; details: ATCC BAA-2108, 18 h
[13] = system: Klebsiella pneumoniae; assay: Antimicrobial activity against NDM1 beta-lactamase expressing Klebsiella pneumoniae ATCC BAA-2470 measured after 18 hrs by broth microdilution method; type: functional; details: ATCC BAA-2470, 18 h
[14] = system: Staphylococcus aureus; assay: Antimicrobial activity against Staphylococcus aureus ATCC 25923 measured after 18 hrs by broth microdilution method; type: functional; details: ATCC 25923, 18 h
[15] = system: Staphylococcus aureus; assay: Antimicrobial activity against penicillin-resistant Staphylococcus aureus ATCC 29213 assessed as ratio of MIC after and before 15 serial passages preincubated followed by replating and measured after 24 hrs; type: functional
[16] = system: Staphylococcus aureus; assay: Bactericidal activity against penicillin-resistant Staphylococcus aureus ATCC 29213 incubated for 18 hrs followed by replating on TSB agar and measured after 24 hrs by broth microdilution method; type: functional
[17] = system: Staphylococcus aureus; assay: Bactericidal activity against methicillin-resistant Staphylococcus aureus ATCC BAA-41 incubated for 18 hrs followed by replating on TSB agar and measured after 24 hrs by broth microdilution method; type: functional
[18] = molecular target: T1, Cell division protein FtsZ (Bacillus subtilis (strain 168)) (UniProt P17865); assay: Inhibition of cell division function of FtsZ in Bacillus subtilis 168 assessed as increase in cell length at MIC after 4 hrs by FM4-64 dye based confocal microscopic method; details: Bacillus subtilis subsp. subtilis str. 168
T1 sequence (whole entry): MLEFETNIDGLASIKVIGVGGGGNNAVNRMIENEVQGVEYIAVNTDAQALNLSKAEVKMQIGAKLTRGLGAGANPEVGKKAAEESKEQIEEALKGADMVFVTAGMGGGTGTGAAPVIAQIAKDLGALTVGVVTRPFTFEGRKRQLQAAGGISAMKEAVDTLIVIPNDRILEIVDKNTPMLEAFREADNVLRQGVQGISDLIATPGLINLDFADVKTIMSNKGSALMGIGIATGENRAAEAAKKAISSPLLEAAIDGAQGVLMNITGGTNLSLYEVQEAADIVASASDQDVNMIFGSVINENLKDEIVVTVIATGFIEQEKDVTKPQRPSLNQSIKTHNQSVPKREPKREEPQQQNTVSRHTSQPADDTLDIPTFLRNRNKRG

Compound	MIC [1] [µg/mL]	MIC [2] [µg/mL]	MIC [3] [µg/mL]	MIC [4] [µg/mL]	MIC [5] [µg/mL]	MIC [6] [µg/mL]	MIC [7] [µg/mL]	MIC [8] [µg/mL]	MIC [9] [µg/mL]	MIC [10] [µg/mL]	MIC [11] [µg/mL]	MIC [12] [µg/mL]	MIC [13] [µg/mL]	MIC [14] [µg/mL]	Ratio [15]	MBC [16] [µg/mL]	MBC [17] [µg/mL]	inhibition [18]
CC1CCN(c2cc(/C=C/c3cc4ccccc4[nH]3)[n+](C)c3ccccc23)CC1.[I-]	8	8	8	8	32	4	4	32	8	> 64	> 64	> 64	> 64	4	–	–	–	–
CCN(CC)CCNc1cc(/C=C/c2c[nH]c3ccccc23)[n+](C)c2ccccc12.[I-]	64	64	32	16	64	16	32	64	32	> 64	> 64	> 64	> 64	16	–	–	–	–
C[n+]1c(/C=C/c2c[nH]c3ccccc23)cc(NCCN2CCOCC2)c2ccccc21.[I-]	64	64	64	64	> 64	32	32	> 64	64	> 64	> 64	> 64	> 64	64	–	–	–	–
C[n+]1c(/C=C/c2cc3ccccc3[nH]2)cc(N2CCCC2)c2ccccc21.[I-]	16	16	8	8	32	2	8	32	8	> 64	64	> 64	> 64	4	–	–	–	–
CCn1cc(C(=O)O)c(=O)c2cc(F)c(N3CCNCC3)cc21 [NORFLOXACIN]	–	–	–	–	–	–	–	–	–	–	–	–	–	–	500	–	–	–
CCN(CC)CCNc1cc(/C=C/c2cc3ccccc3[nH]2)[n+](C)c2ccccc12.[I-]	64	64	64	16	64	16	32	64	32	> 64	> 64	> 64	> 64	16	–	–	–	–
C[n+]1c(/C=C/c2cc3ccccc3[nH]2)cc(N2CCOCC2)c2ccccc21.[I-]	64	32	16	8	64	16	16	64	16	> 64	> 64	> 64	> 64	16	–	–	–	–
C[n+]1c(/C=C/c2c[nH]c3ccccc23)cc(N2CCOCC2)c2ccccc21.[I-]	16	32	32	16	> 64	16	16	64	32	> 64	> 64	> 64	> 64	16	–	–	–	–
CN[C@H](CC(C)C)C(=O)N[C@H]1C(=O)N[C@@H](CC(N)=O)C(=O)N[C@H]2C(=O)N[C@H]3C(=O)N[C@H](C(=O)N[C@H](C(=O)O)c4cc(O)cc(O)c4-c4cc3ccc4O)[C@H](O)c3ccc(c(Cl)c3)Oc3cc2cc(c3O[C@@H]2O[C@H](CO)[C@@H](O)[C@H](O)[C@H]2O[C@H]2C[C@](C)(N)[C@H](O)[C@H](C)O2)Oc2ccc(cc2Cl)[C@H]1O [VANCOMYCIN]	2 (≈ 1.38 µM)	> 64	–	0.25 (≈ 0.173 µM)	> 64	–	–	> 64	–	> 64	64 (≈ 44.2 µM)	> 64	> 64	–	–	2 (≈ 1.38 µM)	2 (≈ 1.38 µM)	–
C[n+]1c(/C=C/c2cc3ccccc3[nH]2)ccc2ccccc21.[I-]	32	64	64	32	64	32	32	64	32	> 64	> 64	> 64	> 64	32	–	–	–	–
C[n+]1c(/C=C/c2c[nH]c3ccccc23)cc(NCCN2CCCC2)c2ccccc21.[I-]	64	64	64	32	64	16	32	64	64	> 64	> 64	> 64	> 64	16	–	–	–	–
CC1(C)S[C@@H]2[C@H](NC(=O)Cc3ccccc3)C(=O)N2[C@H]1C(=O)O [PENICILLIN G]	0.5 (≈ 1.5 µM)	> 64	> 64	32 (≈ 95.7 µM)	> 64	> 64	0.25 (≈ 0.748 µM)	1 (≈ 2.99 µM)	> 64	> 64	64 (≈ 191 µM)	> 64	> 64	< 0.125	–	–	–	–
CC1CCN(c2cc(/C=C/c3c[nH]c4ccccc34)[n+](C)c3ccccc23)CC1.[I-]	4	4	4	4	32	4	2	16	4	> 64	32	> 64	> 64	2	–	–	–	Active
CO[C@H]1/C=C/O[C@@]2(C)Oc3c(C)c(O)c4c(O)c(c(/C=N/N5CCN(C)CC5)c(O)c4c3C2=O)NC(=O)/C(C)=C\C=C\[C@H](C)[C@H](O)[C@@H](C)[C@@H](O)[C@@H](C)[C@H](OC(C)=O)[C@@H]1C [RIFAMPIN]	–	–	–	–	–	–	–	–	–	–	–	–	–	–	2000	–	–	–
C[n+]1c(/C=C/c2c[nH]c3ccccc23)ccc2ccccc21.[I-]	32	64	32	32	> 64	32	32	> 64	32	> 64	> 64	> 64	> 64	32	–	–	–	–
C[n+]1c(/C=C/c2cc3ccccc3[nH]2)cc(NCCN2CCCCC2)c2ccccc21.[I-]	64	32	32	16	64	16	16	32	32	> 64	64	> 64	> 64	16	–	–	–	–
O=C(O)c1cn(C2CC2)c2cc(N3CCNCC3)c(F)cc2c1=O [CIPROFLOXACIN]	4 (≈ 12.1 µM)	> 64	2 (≈ 6.04 µM)	2 (≈ 6.04 µM)	> 64	2 (≈ 6.04 µM)	32 (≈ 96.6 µM)	< 0.125	> 64	–	2 (≈ 6.04 µM)	64 (≈ 193 µM)	64 (≈ 193 µM)	< 0.125	–	–	–	–
C[n+]1c(/C=C/c2c[nH]c3ccccc23)cc(N2CCCC2)c2ccccc21.[I-]	16	8	16	8	32	2	4	32	4	> 64	64	> 64	> 64	4	–	–	–	–
